Assay results: patent US20040028714A1, “Composition having insect repellent characteristics” (priority 2000, published 2004)
Where “and” joins values, the source holds several entries; their conditions need not be identical. Equal values may be shown once.

Assays:
Format in all cases: in vivo
[1] = system: German cockroaches (Blatella Germanica); test: Cockroach repellency screening on partially treated formica surface (Example 2); conditions: cockroaches, 20 mg/m^2 on formica
Experimental: The effectiveness of compounds of formula I as an insect repellent was determined using German cockroaches exposed to a formica surface partially treated/partially untreated with a test compound of formula I. The study was conducted in an air conditioned laboratory at a temperature of 22°±2° C. under a normal day/night cycle, using German cockroaches (Blatella Germanica) of mixed sex and age. The study was conducted over a 3 day period and the repellent effectiveness assessed 1, 2 and 3 days after cockroach introduction. A rectangle of formica 40 cm×30 cm was treated at 20 mg/m^2 with a test compound of formula I. This was achieved by soaking a paper wipe (Rag on a Roll ca 20 cm×20 cm) in a solution of the test compound in ethanol, squeezing out the excess liquid and wiping over the surface to give the required coverage. This was checked by weighing the cloth after application. The surface was allowed to dry. A similar rectangle was wiped with ethanol alone (untreated surface). The treated formica rectangle was placed on the bench and a plastic container was placed on the rectangle. This had been treated with fluon to prevent cockroach escape. Two sheets of formica (10 cm×10 cm) were placed on the formica, one on the treated surface and one on the untreated surface. This acted as a cockroach harbourage. The formica sheet to be used in the treated section was treated at the same rate as the treated formica. The formica was placed on two 1 cm high bottle tops to allow cockroaches access under the formica. 20 German cockroaches were added (5 adults and 15 nymphs) to the centre of the formica. No food and water was supplied for these cockroaches. At 1, 2 and 3 days after cockroach introduction the number of cockroaches under each harbourage was counted. After each count the harbourage position was change to avoid the possibility of […] were replaced and new cockroaches were added to replace any dead cockroaches. The above was repeated 3 times to provide a total of 4 replicates.

[2] = system: Casemaking Clothes Moths (Tinea pellionella); test: Adult clothes moth repellency on treated woolen cloth (Example 5); conditions: fabric soaked in 20 g/L in ethanol, 2 days after moth introduction
Experimental: The effectiveness of compound 2 (example 1) to reduce the presence of cloth moths on woolen cloth was determined and was directly compared to the repellency of the well known moth repellents Citronellol and Farnesol.
The study was conducted in an air conditioned laboratory at a temperature of 22°±2° C. under a normal day/night cycle, using Casemaking Clothes Moths (Tinea pellionella) of mixed sex and age. The study is conducted over a 5 days period and the repellent effectiveness was assessed as follows:
Adults—2 days after insect introduction
A 10 cm×10 cm square of black woolen fabric free of bactericide) was soaked in a solution of the candidate repellent in ethanol at 20 g/L, squeezed and allowed to dry. The woollen square was placed in a small box (5 cm×10 cm×10 cm) which was open at one end to allow entry of adult clothes moth.
A similar square of fabric treated with ethanol (control) was placed in another box of the same size.
These two boxes were placed in an aquarium and 50 mixed sex adult moths were added. These were provided with food and water and left for 5 days.
At the end of 2 days the number of adult moths in each box was counted.
The above was repeated 3 times to provide 4 replicates.

[3] = system: German cockroaches (Blatella Germanica); test: Cockroach repellency in tray with half-treated vinyl, compared with DEET and N-methyl-neodecanamide (Example 3); conditions: 20 mg/m^2 on vinyl; for Number of Cockroaches present, Treated Section / Number of Cockroaches present, Untreated Section / Number of Cockroaches, Dead: single replicates (n = 50); for Number of Cockroaches present, Treated Section, Total / Number of Cockroaches present, Untreated Section, Total / Number of Cockroaches, Dead, Total: total of 4 replicates (200); for Percentage Dead / Percentage Present, Treated Section / Percentage Present, Untreated Section: cockroaches
Experimental: The effectiveness of compound 2 (example 1) as an insect repellent was determined using German cockroaches exposed to a formica surface partially treated/partially un-treated, and was directly compared to the repellency of the well known insect repellents DEET (N,N-diethyl-meta-toluamide) and N-methyl-neodecanamide. The study was conducted in an air conditioned laboratory at a temperature of 22°±2° C. under a normal day/night cycle, using German cockroaches (Blatella Germanica) of mixed sex and age. The study was conducted over a 7 days period and the repellent effectiveness was assessed 1, 3, 5 and 7 days after cockroach introduction. Each tray used in the study consisted of a melamine square tray of sides 1.8m×1.8m and 20 cm high walls. The upper part of the wall was provided with electrical strip, which prevented cockroaches escaping. A square of vinyl 90 cm×180 cm was treated with the test compound at 20 mg/m^2. This was achieved by soaking a paper wipe (Rag on a Roll, ca. 20 cm×20 cm) in a solution of the test compound in ethanol, squeezing out the excess liquid and wiping over the surface to give the required coverage. This was checked by weighing the cloth after application. The surface was allowed to dry. The treated vinyl square was placed in one half of the tray. A similar untreated square was placed in the other half of the tray. This square was treated with ethanol alone. Two sheets of formica (30 cm×30 cm) were placed at one corner of each tray, one on the treated surface and one on the untreated surface. This acted as a cockroach harbourage. The formica sheet to be used in the treated section was treated at the same rate as the treated formica. The formica was placed on two 1 cm high bottle tops to allow cockroaches access under the formica. 50 German cockroaches were added (15 adults and 35 nymphs) to the middle of the tray. No food and water was supplied for these cockroaches. At 1, 2, 3 and 7 days after cockroach introduction the number of cockroaches under each harbourage was counted. After each count the harbourage position was change to avoid the possibility of habituation to one location, the harbourages were replaced and new cockroaches were added to replace any dead cockroaches. The above was repeated 3 times to provide a total of 4 replicates.

[4] = share of moths found in the two boxes
[5] = 1 day after cockroach introduction
[6] = 2 days after cockroach introduction
[7] = 3 days after cockroach introduction
[8] = 7 days after cockroach introduction

CCNC(=O)C1CC(C)CCC1C(C)C (centres unmarked) [Compound 2, N-ethyl-p-menthane-3-carboxamide]
Percentage Dead ([1]; 1 day after treatment): 0% | Percentage Present, Treated Section ([1]; 1 day after treatment): 17.5% | Percentage Present, Untreated Section ([1]; 1 day after treatment): 82.5% | Percentage Dead ([1]; 2 days after treatment): 1.2% | Percentage Present, Treated Section ([1]; 2 days after treatment): 16.3% | Percentage Present, Untreated Section ([1]; 2 days after treatment): 82.5% | Percentage Dead ([1]; 3 days after treatment): 2.5% | Percentage Present, Treated Section ([1]; 3 days after treatment): 13.8% | Percentage Present, Untreated Section ([1]; 3 days after treatment): 83.7% | Percentage Present, Treated Section, Average ([1]; average of days 1, 2 and 3): 15.9% | Percentage Present, Untreated Section, Average ([1]; average of days 1, 2 and 3): 82.9% | Moths Present, Treated Section, Total (%) [2, 4]: (29.4%) | Moths Present, Untreated Section, Total (%) [2, 4]: (70.6%) | The Number of Moths Present, Treated Section ([2]; single replicates (n = 50)): 6 and 7 and 11 and 8 | The Number of Moths Present, Untreated Section ([2]; single replicates (n = 50)): 9 and 19 and 27 and 22 | The Number of Moths Present, Treated Section, Total ([2]; total of 4 replicates): 32 | The Number of Moths Present, Untreated Section, Total ([2]; total of 4 replicates): 77 | cockroach repellency (in words) ([3]; over 7 days): excellent repellency | Number of Cockroaches present, Treated Section [3, 5]: 0 (3×) and 3 | Number of Cockroaches present, Untreated Section [3, 5]: 50 (2×) and 49 and 47 | Number of Cockroaches, Dead [3, 5]: 0 (3×) and 1 | Number of Cockroaches present, Treated Section, Total [3, 5]: 3 | Number of Cockroaches present, Untreated Section, Total [3, 5]: 196 | Number of Cockroaches, Dead, Total [3, 5]: 1 | Number of Cockroaches present, Treated Section [3, 6]: 0 (3×) and 1 | Number of Cockroaches present, Untreated Section [3, 6]: 50 (2×) and 49 (2×) | Number of Cockroaches, Dead [3, 6]: 0 (3×) and 1 | Number of Cockroaches present, Treated Section, Total [3, 6]: 1 | Number of Cockroaches present, Untreated Section, Total [3, 6]: 198 | Number of Cockroaches, Dead, Total [3, 6]: 1 | Number of Cockroaches present, Treated Section [3, 7]: 6 and 3 and 0 (2×) | Number of Cockroaches present, Untreated Section [3, 7]: 44 and 47 and 50 and 49 | Number of Cockroaches, Dead [3, 7]: 0 (3×) and 1 | Number of Cockroaches present, Treated Section, Total [3, 7]: 9 | Number of Cockroaches present, Untreated Section, Total [3, 7]: 190 | Number of Cockroaches, Dead, Total [3, 7]: 1 | Number of Cockroaches present, Treated Section [3, 8]: 7 and 19 and 3 and 11 | Number of Cockroaches present, Untreated Section [3, 8]: 43 and 30 and 47 and 38 | Number of Cockroaches, Dead [3, 8]: 0 (2×) and 1 (2×) | Number of Cockroaches present, Treated Section, Total [3, 8]: 40 | Number of Cockroaches present, Untreated Section, Total [3, 8]: 158 | Number of Cockroaches, Dead, Total [3, 8]: 2 | Percentage Dead ([3]; 1 day after treatment): 0.5% | Percentage Present, Treated Section ([3]; 1 day after treatment): 1.5% | Percentage Present, Untreated Section ([3]; 1 day after treatment): 98.0% | Percentage Dead ([3]; 2 days after treatment): 0.5% | Percentage Present, Treated Section ([3]; 2 days after treatment): 0.5% | Percentage Present, Untreated Section ([3]; 2 days after treatment): 99.0% | Percentage Dead ([3]; 3 days after treatment): 0.5% | Percentage Present, Untreated Section ([3]; 3 days after treatment): 95.0% | Percentage Dead ([3]; 7 days after treatment): 1.0% | Percentage Present, Treated Section ([3]; 7 days after treatment): 20% | Percentage Present, Untreated Section ([3]; 7 days after treatment): 79.0%
